According to the NIST ThermoML archive (doi:10.1021/acs.jced.9b00540):

Assay: xn = mol fraction of the nth substance listed
Details: Liquid

CCOC(F)(C(F)(F)C(F)(F)C(F)(F)F)C(F)(C(F)(F)F)C(F)(F)F (stereo not given) [2-trifluoromethyl-3-ethoxydodecafluorohexane] + CC(C)OC(C)C
viscosity [mPa·s]
Details	x1 = 0.25	x1 = 0.375	x1 = 0.5	x1 = 0.625	x1 = 0.75	x1 = 1
313.15 K, 100000 kPa, Falling or rolling sphere viscometry	–	–	–	–	2.663	4.307
333.15 K, 100 kPa, Capillary tube (Ostwald / Ubbelohde) method	0.311	0.356	0.416	0.486	0.574	0.739
333.15 K, 20000 kPa, Falling or rolling sphere viscometry	0.393	0.488	0.56	0.644	0.754	1.032
333.15 K, 40000 kPa, Falling or rolling sphere viscometry	0.491	0.604	0.707	0.826	0.982	1.41
333.15 K, 60000 kPa, Falling or rolling sphere viscometry	0.595	0.735	0.875	1.035	1.252	1.87
333.15 K, 80000 kPa, Falling or rolling sphere viscometry	0.706	0.884	1.067	1.277	1.574	2.427
333.15 K, 100000 kPa, Falling or rolling sphere viscometry	0.822	1.051	1.283	1.557	1.958	3.105
353.15 K, 100 kPa, Capillary tube (Ostwald / Ubbelohde) method	–	–	–	–	0.465	0.576
353.15 K, 20000 kPa, Falling or rolling sphere viscometry	0.34	0.399	0.442	0.499	0.591	0.799
353.15 K, 40000 kPa, Falling or rolling sphere viscometry	0.428	0.508	0.578	0.66	0.773	1.084
353.15 K, 60000 kPa, Falling or rolling sphere viscometry	0.517	0.622	0.724	0.836	0.997	1.418
353.15 K, 80000 kPa, Falling or rolling sphere viscometry	0.61	0.739	0.879	1.025	1.245	1.808
353.15 K, 100000 kPa, Falling or rolling sphere viscometry	0.706	0.855	1.037	1.223	1.504	2.265
